In patent publication US9840478B2 (MERCK SHARP & DOHME CORP., priority 2013, dated 2017):
pIC50: −log10 of the molar value.

system: HIV-1 (H9IIIB strain); assay: Cell-based HIV infection assay using a reporter (Cell-Based), MT4-GFP cells; settings: Human immunodeficiency virus 1, MT4-GFP cells infected with HIV-1 H9IIIB; 50% normal human serum; mean of at least two independent experiments; read-out: Cell-based IP
Experimental: Cell-Based HIV Infection Assay Using a Reporter (“Cell-Based”):
MT4-GFP cells contain a stably integrated HIV long terminal repeat promoter directing the transcription of green fluorescent protein (GFP). When HIV infects the cell, GFP is produced and the cell becomes green. MT4-GFP cells (250,000 cells/ml) were bulk-infected with HIV-1 (H9IIIB strain) at low multiplicity of infection (MOI) in RPMI media, supplemented with 10% FBS for 24 hours. Cells were then washed once in RPMI plus 10% FBS and resuspended in RPMI plus 50% normal human serum (NHS). Test compounds were serial-diluted in DMSO using an ECHO liquid dispenser. A control well included a combination of three HIV drugs (an inhibitor of HIV protease, integrase strand transfer and a non-nucleoside reverse transcriptase inhibitor; triple drug). The infected MT4-GFP cells were added to a 384-well poly-D-lysine coated black plate with clear bottom in which the diluted test compounds were placed. The cells were seeded in the plate at 8,000 cells per well and the final DMSO concentration was 0.4%. Infected cells were quantified at both 24 and 48 hours post incubation using an Acumen eX3 plate reader. Viral reproductive ratio (R0) was determined using the number of infected cells at 48 hours divided by the number of infected cells at 24 hours. Percent viral growth inhibition was calculated by [1−(R−Rtripledrug)/(RDMSO−Rtripledrug)]*100. Compound potency IP or IC50 was determined with use of a 4-parameter dose response curve analysis.

Question: How did the pIC50 turn out when `O=C(C[C@@H](c1ccc(F)cc1)c1cc(F)cc(F)c1)Nc1cncc(F)c1CC[C@H]1CNCCN1S(=O)(=O)c1cccnc1` [Example 305, (3S)-3-(3,5-difluorophenyl)-3-(4-fluorophenyl)-N-(5-fluoro-4-{2-[(2S)-1-(pyridin-3-ylsulfonyl)piperazin-2-yl]ethyl}pyridin-3-yl)propanamide] was run?
Answer: 8.09

Question: `CC[C@@H]1CNC[C@H](CCc2c(F)cccc2NC(=O)[C@@H](N)[C@@H](c2ccc(F)cc2)c2cc(F)cc(F)c2)N1S(C)(=O)=O` [Example 263, (βS)-β-(3,5-difluorophenyl)-N-(2-{2-[(2S,6R)-6-ethyl-1-(methylsulfonyl)piperazin-2-yl]ethyl}-3-fluorophenyl)-4-fluoro-L-phenylalaninamide] was tested. Which pIC50 did it give?
Answer: 7.11

Question: How did the pIC50 turn out when `CC(=O)N[C@H](C(=O)Nc1cncc(F)c1CC[C@H]1CNCCN1S(=O)(=O)N1CCCC1)[C@@H](c1ccc(F)cc1)c1cc(F)cc(F)c1` [Example 85, (βS)-Nα-acetyl-3,5-difluoro-β-(4-fluorophenyl)-N-(5-fluoro-4-{2-[(2S)-1-(pyrrolidin-1-ylsulfonyl)piperazin-2-yl]ethyl}pyridin-3-yl)-L-phenylalaninamide] was run?
Answer: 7.68

Question: How did the pIC50 turn out when `O=C(CC(c1ccc(F)cc1)c1ccc(F)cc1)Nc1cccc(F)c1CC[C@@H]1CNCCN1S(=O)(=O)c1ccccc1` [Example 61, 3,3-bis(4-fluorophenyl)-N-(3-fluoro-2-{2-[(2R)-1-(phenylsulfonyl)piperazin-2-yl]ethyl}phenyl)propanamide] was run?
Answer: 5.92

Question: With `COC(=O)N[C@H](C(=O)Nc1cccc(F)c1CC[C@H]1CNCCN1S(=O)(=O)c1ccccc1)[C@@H](c1ccc(Cl)cc1)c1ccc(OC)nc1` [Example 5, Methyl ((1S,2S)-1-(4-chlorophenyl)-3-((3-fluoro-2-(2((S)-1-(phenylsulfonyl)piperizin-2-yl)ethyl)phenyl)amino)-1-(6-methoxypyridin-3-yl)-3-oxopropan-2-yl)carbamate] as the compound, how does the pIC50 read?
Answer: 8.23

Question: `C[C@H]1CNC[C@H](CCc2c(F)cncc2NC(=O)[C@@H](N)[C@@H](c2ccc(F)cc2)c2cc(F)cc(F)c2)N1S(=O)(=O)c1ccccc1` [Example 105, (βS)-β-(3,5-difluorophenyl)-4-fluoro-N-(5-fluoro-4-{2-[(2S,6S)-6-methyl-1-(phenylsulfonyl)piperazin-2-yl]ethyl}pyridin-3-yl)-L-phenylalaninamide] was tested. Which pIC50 did it give?
Answer: 7.72

Question: How did the pIC50 turn out when `O=C(C[C@@H](c1ccc(F)cc1)c1cc(F)cc(F)c1)Nc1cncc(F)c1CC[C@H]1CNCCN1S(=O)(=O)CC1CC1` [Example 302, (3S)-N-[4-(2-{(2S)-1-[(cyclopropylmethyl)sul-fonyl]piperazin-2-yl}ethyl)-5-fluoropyridin-3-yl]-3-(3,5-difluorophenyl)-3-(4-fluorophenyl)propanamide] was run?
Answer: 7.62

Question: `CC(=O)Nc1nc(S(=O)(=O)N2CCNC[C@@H]2CCc2c(F)cncc2NC(=O)C[C@@H](c2ccc(F)cc2)c2cc(F)cc(F)c2)c(C)s1` [Example 309, (3S)-N-(4-{2-[(2S)-1-{[2-(acetylamino)-5-methyl-1,3-thiazol-4-yl]sulfonyl}piperazin-2-yl]ethyl}-5-fluoropyridin-3-yl)-3-(3,5-difluorophenyl)-3-(4-fluorophenyl)propanmide] was tested. Which pIC50 did it give?
Answer: 6.85

Question: How did the pIC50 turn out when `COC(=O)N[C@H](C(=O)Nc1cccc(F)c1CC[C@H]1CNC[C@H](C)N1S(C)(=O)=O)[C@H](c1cccc(F)c1)c1cccc(Cl)c1` [Example 174, (βR)-3-chloro-N-(3-fluoro-2-{2-[(2S,6S)-6-methyl-1-(methylsulfonyl)piperazin-2-yl]ethyl}phenyl)-β-(3-fluorophenyl)-Nα-(methoxycarbonyl)-L-phenylalaninamide] was run?
Answer: 7.00

Question: With `CC[C@@H]1CNC[C@H](CCc2c(F)cccc2NC(=O)[C@@H](N)[C@@H](c2ccc(Cl)cc2)C2CCOCC2)N1S(C)(=O)=O` [Example 265, (βR)-4-chloro-N-(2-{2-[(2S,6R)-6-ethyl-1-(methylsulfonyl)piperazin-2-yl]ethyl}-3-fluorophenyl)-β-(tetrahydro-2H-pyran-4-yl)-L-phenylalaninamide] as the compound, how does the pIC50 read?
Answer: 6.59

Question: `CC[C@@H]1CNC[C@H](CCc2c(F)cccc2NC(=O)[C@@H](NC(=O)OC)[C@@H](c2ccc(F)cc2)c2cc(F)cc(F)c2)N1S(C)(=O)=O` [Example 270, (βS)-β-(3,5-difluorophenyl)-N-(2-{2-[(2S,6R)-6-ethyl-1-(methylsulfonyl)piperazin-2-yl]ethyl}-3-fluorophenyl)-4-fluoro-Nα-(methoxycarbonyl)-L-phenylalaninamide] was tested. Which pIC50 did it give?
Answer: 7.62

Question: With `COC(=O)N[C@H](C(=O)Nc1cncc(F)c1CC[C@H]1CNCCN1S(=O)(=O)C1CC1)[C@@H](c1ccc(F)cc1)c1cc(F)cc(F)c1` [Example 50, (βS)-N-(4-{2-[(2S)-1-(cyclopropylsulfonyl)piperazin-2-yl]ethyl}-5-fluoropyridin-3-yl)-3,5-difluoro-β-(4-fluorophenyl)-Nα-(methoxycarbonyl)-L-phenylalaninamide] as the compound, how does the pIC50 read?
Answer: 7.68

Question: With `C[C@H]1CNC[C@H](CCc2c(F)cncc2NC(=O)[C@@H](N)[C@@H](c2ccc(F)cc2)c2cc(F)cc(F)c2)N1S(C)(=O)=O` [Example 191, (βS)-β-(3,5-difluorophenyl)-4-fluoro-N-(5-fluoro-4-{2-[(2S,6S)-6-methyl-1-(methylsulfonyl)piperazin-2-yl]ethyl}pyridin-3-yl)-L-phenylalaninamide] as the compound, how does the pIC50 read?
Answer: 7.70

Question: With `N[C@H](C(=O)Nc1cncc(F)c1CC[C@H]1CNCCN1S(=O)(=O)N1CCCC1)[C@@H](c1ccc(F)cc1)c1cc(F)cc(F)c1` [Example 83, (βS)-3,5-difluoro-β-(4-fluorophenyl)-N-(5-fluoro-4-{2-[(2S)-1-(pyrrolidin-1-ylsulfonyl)piperazin-2-yl]ethyl}pyridin-3-yl)-L-phenylalaninamide] as the compound, how does the pIC50 read?
Answer: 8.05

Question: How did the pIC50 turn out when `COC(=O)N[C@H](C(=O)Nc1cccc(F)c1CC[C@H]1CNC[C@H](C)N1S(C)(=O)=O)[C@@H](c1ccc(Cl)cc1)C(C)C` [Example 123, (βR)-4-chloro-N-(3-fluoro-2-{2-[(2S,6S)-6-methyl-1-(methylsulfonyl)piperazin-2-yl]ethyl}phenyl)-Nα-(methoxycarbonyl)-β-(1-methylethyl)-L-phenylalaninamide] was run?
Answer: 7.21

Question: With `COC(=O)N[C@H](C(=O)Nc1cncc(F)c1CC[C@H]1CNC[C@H](C)N1S(=O)(=O)C1CC1)[C@@H](c1ccc(Cl)cc1)C(C)C` [Example 179, (βR)-4-chloro-N-(4-{2-[(2S,6S)-1-(cyclopropylsulfonyl)-6-methylpiperazin-2-yl]ethyl}-5-fluoropyridin-3-yl)-Nα-(methoxycarbonyl)-β-(1-methylethyl)-L-phenylalaninamide] as the compound, how does the pIC50 read?
Answer: 7.48

Question: `C[C@@H]1CN(S(=O)(=O)c2ccccc2)[C@@H](CCc2c(F)cccc2NC(=O)CC(c2ccc(F)cc2)c2ccc(F)cc2)CN1` [Example 88, N-(3-fluoro-2-{2-[(2S,5R)-5-methyl-1-(phenylsulfonyl)piperazin-2-yl]ethyl}phenyl)-3,3-bis(4-fluorophenyl) propanamide] was tested. Which pIC50 did it give?
Answer: 6.28

Question: With `C[C@H]1CNC[C@H](CCc2c(F)cccc2NC(=O)[C@@H](N)[C@@H](Cc2ccc(F)cc2)c2ccc(Cl)cc2)N1S(=O)(=O)c1ccccc1` [Example 193, (βS)-4-chloro-β-(4-fluorobenzyl)-N-(3-fluoro-2-{2-[(2S,6S)-6-methyl-1-(phenylsulfonyl)piperazin-2-yl]ethyl}phenyl)-L-phenylalaninamide] as the compound, how does the pIC50 read?
Answer: 7.25

Question: With `O=C(CC1CC1)N[C@H](C(=O)Nc1cncc(F)c1CC[C@H]1CNCCN1S(=O)(=O)N1CCCC1)[C@@H](c1ccc(F)cc1)c1cc(F)cc(F)c1` [Example 87] as the compound, how does the pIC50 read?
Answer: 7.80

Question: `COC(=O)N[C@H](C(=O)Nc1cccc(F)c1CC[C@H]1CNC[C@@H](C)N1S(=O)(=O)c1ccccc1)[C@@H](c1ccc(Cl)cc1)c1cccc(F)c1` [Example 184, (βS)-4-chloro-N-(3-fluoro-2-{2-[(2S,6R)-6-methyl-1-(phenylsulfonyl)piperazin-2-yl]ethyl}phenyl)-β-(3-fluorophenyl)-Nα-(methoxycarbonyl)-L-phenylalaninamide] was tested. Which pIC50 did it give?
Answer: 7.60

Question: `N[C@H](C(=O)Nc1cccc(F)c1CC[C@H]1CNCCN1S(=O)(=O)c1ccccc1)[C@H](CCC1CCOCC1)c1ccc(Cl)c(F)c1` [Example 72, (βR)-4-chloro-3-fluoro-N-(3-fluoro-2-{2-[(2S)-1-(phenylsulfonyl)piperazin-2-yl]ethyl}phenyl)-β-[2-(tetrahydro-2H-pyran-4-yl)ethyl]-L-phenylalaninamide] was tested. Which pIC50 did it give?
Answer: 7.68

Question: With `COC(=O)N[C@H](C(=O)Nc1cccc(F)c1CC[C@H]1CNC[C@H](C)N1S(=O)(=O)c1ccccc1)[C@@H](Cc1ccc(F)cc1)c1ccc(Cl)cc1` [Example 194, (βS)-4-chloro-β-(4-fluorobenzyl)-N-(3-fluoro-2-{2-[(2S,6S)-6-methyl-1-(phenylsulfonyl)piperazin-2-yl]ethyl}phenyl)-Nα-(methoxycarbonyl)-L-phenylalaninamide] as the compound, how does the pIC50 read?
Answer: 7.47

Question: How did the pIC50 turn out when `N[C@H](C(=O)Nc1cccc(F)c1CC[C@H]1CNCC2(CC2)N1S(=O)(=O)c1ccccc1)C(c1ccc(F)cc1)c1ccc(F)cc1` [Example 366, (S)-2-amino-N-(3-fluoro-2-(2-((S)-4-(phenylsulfonyl)-4,7-diazaspiro[2.5]octan-5-yl)ethyl)phenyl)-3,3-bis(4-fluorophenyl)propanamide] was run?
Answer: 7.89
